Assay results reported in patent publication US10227323B2, “Glucosylceramide synthase inhibitors for the treatment of diseases” (BIOMARIN PHARMACEUTICAL INC., priority 2013, dated 2019).

target: T1, GCS (Canis lupus familiaris, UniProt A0A8I3MXG6); assay: Assay 1: GCS Enzymatic Assay (MDCK cell lysate, C6-NBD-Ceramide, LC/MS); assay type: biochemical, canine; settings: Table 1; MDCK cell lysate; read-out: IC50 (nM) generated from Assay 1
T1 sequence (A0A8I3MXG6 1-394): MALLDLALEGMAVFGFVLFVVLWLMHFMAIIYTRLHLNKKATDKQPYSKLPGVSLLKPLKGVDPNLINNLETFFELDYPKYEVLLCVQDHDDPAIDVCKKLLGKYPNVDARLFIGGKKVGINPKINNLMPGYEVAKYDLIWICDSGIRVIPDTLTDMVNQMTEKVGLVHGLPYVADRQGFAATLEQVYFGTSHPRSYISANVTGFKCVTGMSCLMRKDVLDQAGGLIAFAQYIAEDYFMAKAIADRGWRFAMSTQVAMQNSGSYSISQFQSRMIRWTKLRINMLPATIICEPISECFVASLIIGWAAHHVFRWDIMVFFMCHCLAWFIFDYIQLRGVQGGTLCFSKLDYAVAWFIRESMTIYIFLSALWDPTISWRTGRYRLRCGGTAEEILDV
Procedure, shortened: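 LC/MS/MS measurement of glucosylceramide and NBD-ceramide after a 1 h, 37 °C reaction with 100 μM UDP-glucose and 10 μM C6-NBD-ceramide gave IC50s or percent inhibition.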

SMILES | IC50 [nM]
C[C@H]1CCCN1C[C@@H](NC(=O)C(F)(F)c1cc2cc(Cl)ccc2o1)[C@H](O)c1ccc2c(c1)OCCO2 [Compound 40, 2-(5-chlorobenzofuran-2-yl)-N-((1R,2R)-1-(2,3-dihydrobenzo[b][1,4]dioxin-6-yl)-1-hydroxy-3-((S)-2-methylpyrrolidin-1-yl)propan-2-yl)-2,2-difluoroacetamide] | < 50
O=C(N[C@H](CN1CCCC1)[C@H](O)c1ccc(OC2CCOC2)c(Cl)c1)C(F)(F)c1cc2cc(Cl)ccc2o1 (single isomer, unassigned) [Compound 47] | < 50
COc1ccc([C@@H](O)[C@@H](CN2CCCC2)NC(=O)C(F)(F)c2cc3cc(Cl)ccc3o2)cc1C(F)F [Compound 59, 2-(5-chlorobenzofuran-2-yl)-N-((1R,2R)-1-(3-(difluoromethyl)-4-methoxyphenyl)-1-hydroxy-3-(pyrrolidin-1-yl)propan-2-yl)-2,2-difluoroacetamide] | 50 to 5000
O=C(N[C@H](CN1CCCC1)[C@@H](O)c1ccc(OC2CC2)c(Cl)c1)C(F)(F)c1cc2cc(C(F)(F)F)ccc2o1 [Compound 69A, N-((1S,2R)-1-(3-chloro-4-cyclopropoxyphenyl)-1-hydroxy-3-(pyrrolidin-1-yl)propan-2-yl)-2,2-difluoro-2-(5-(trifluoromethyl)benzofuran-2-yl)acetamide] | 50 to 5000
O=C(N[C@H](CN1CCCC1)[C@H](O)c1ccc2c(c1)OCCO2)C(F)(F)c1cc2cc(C(F)(F)F)ccc2o1 [Compound 30, N-((1R,2R)-1-(2,3-dihydrobenzo[b][1,4]dioxin-6-yl)-1-hydroxy-3-(pyrrolidin-1-yl)propan-2-yl)-2,2-difluoro-2-(5-(trifluoromethyl)benzofuran-2-yl)acetamide] | < 50

same assay, conditions: Table 1; values marked *; MDCK cell lysate

SMILES | % inhibition generated from Assay 1
NC1CC2CCC(C1)N2C[C@@H](NC(=O)C(F)(F)c1cc2cc(Cl)ccc2o1)[C@H](O)c1ccc2c(c1)OCCO2 (stereo partly drawn) [Compound 26, N-((1R,2R)-3-(3-amino-8-azabicyclo[3.2.1]octan-8-yl)-1-(2,3-dihydrobenzo[b][1,4]dioxin-6-yl)-1-hydroxypropan-2-yl)-2-(5-chlorobenzofuran-2-yl)-2,2-difluoroacetamide] | B* (the compound had a % inhibition of greater than or equal to about 3% but less than about 50%)
COc1ccc(F)c([C@@H](O)[C@@H](CN2CCCC2)NC(=O)C(F)(F)C2Cc3ccccc3C2)c1 [Compound 8, 2-(2,3-dihydro-1H-inden-2-yl)-2,2-difluoro-N-((1R,2R)-1-(2-fluoro-5-methoxyphenyl)-1-hydroxy-3-(pyrrolidin-1-yl)propan-2-yl)acetamide] | B* (the compound had a % inhibition of greater than or equal to about 3% but less than about 50%)

same assay, conditions: Table 2; data marked by *

SMILES | % inhibition generated from Assay 1
O=C(N[C@H](CN1CCCC1)[C@H](O)c1ccc2c(c1)OCCO2)C(=O)c1ccc(-c2ccc(F)cn2)cc1 [Compound 189, N-((1R,2R)-1-(2,3-dihydrobenzo[b][1,4]dioxin-6-yl)-1-hydroxy-3-(pyrrolidin-1-yl)propan-2-yl)-2-(4-(5-fluoropyridin-2-yl)phenyl)-2-oxoacetamide] | A* (the compound had a % inhibition of a percent inhibition of greater than or equal to about 50%)
O=C(N[C@H](CN1CCCC1)[C@H](O)c1ccc(OCCN2CCC2)c(Cl)c1)C(F)(F)CCc1ccc2ccccc2c1 [Compound 131, N-((1R,2R)-1-(4-(2-(azetidin-1-yl)ethoxy)-3-chlorophenyl)-1-hydroxy-3-(pyrrolidin-1-yl)propan-2-yl)-2,2-difluoro-4-(naphthalen-2-yl)butanamide] | A* (the compound had a % inhibition of a percent inhibition of greater than or equal to about 50%)
O=C(N[C@H](CN1CCCC1)[C@H](O)c1ccc(OC2CC2)c(Cl)c1)C(=O)c1cnc(-c2ccc(F)cc2)s1 [Compound 215, N-((1R,2R)-1-(3-chloro-4-cyclopropoxyphenyl)-1-hydroxy-3-(pyrrolidin-1-yl)propan-2-yl)-2-(2-(4-fluorophenyl)thiazol-5-yl)-2-oxoacetamide] | B* (the compound had a % inhibition of greater than or equal to about 3% but less than about 50%)

same assay, conditions: Table 2; data without asterisk; read-out: IC50 (nM) generated from Assay 1

SMILES | IC50 [nM]
Cc1nn(C)c2ccc(-c3ccc(C(=O)C(=O)N[C@H](CN4CCCC4)[C@H](O)c4ccc(OC5CC5)c(Cl)c4)cc3)cc12 [Example 318, N-((1R,2R)-1-(3-chloro-4-cyclopropoxyphenyl)-1-hydroxy-3-(pyrrolidin-1-yl)propan-2-yl)-2-(4-(1,3-dimethyl-1H-indazol-5-yl)phenyl)-2-oxoacetamide] | < 50
O=C(N[C@H](CN1CCC1)[C@H](O)c1ccc(OC2CC2)c(Cl)c1)C(=O)c1cc2ccc(Cl)cc2s1 [Example 338, N-((1R,2R)-3-(azetidin-1-yl)-1-(3-chloro-4-cyclopropoxyphenyl)-1-hydroxypropan-2-yl)-2-(6-chlorobenzo[b]thiophen-2-yl)-2-oxoacetamide] | < 50
O=C(N[C@H](CN1CCCC1)[C@H](O)c1ccc(OC2CCOCC2)c(Cl)c1)C(F)(F)CCc1ccc2ccccc2c1 [Compound 110, N-((1R,2R)-1-(3-chloro-4-((tetrahydro-2H-pyran-4-yl)oxy)phenyl)-1-hydroxy-3-(pyrrolidin-1-yl)propan-2-yl)-2,2-difluoro-4-(naphthalen-2-yl)butanamide] | < 50
O=C(N[C@H](CN1CCCC1)[C@H](O)c1cc(F)c2c(c1)OCCO2)C(=O)c1ccc(-c2ccc(F)cc2)s1 [Compound 230, N-((1R,2R)-1-(8-fluoro-2,3-dihydrobenzo[b][1,4]dioxin-6-yl)-1-hydroxy-3-(pyrrolidin-1-yl)propan-2-yl)-2-(5-(4-fluorophenyl)thiophen-2-yl)-2-oxoacetamide] | < 50
O=C(N[C@H](CN1CCCC1)[C@H](O)c1ccc(OCCN2CCC2)c(Cl)c1)C(F)(F)c1cc2cc(Cl)ccc2o1 [Compound 128, N-((1R,2R)-1-(4-(2-(azetidin-1-yl)ethoxy)-3-chlorophenyl)-1-hydroxy-3-(pyrrolidin-1-yl)propan-2-yl)-2-(5-chlorobenzofuran-2-yl)-2,2-difluoroacetamide] | < 50
O=C(N[C@H](CN1CCCC1)[C@H](O)c1cc(F)c2c(c1)OCCO2)C(=O)c1ccc(N2CCCC2)cc1 [Example 273, N-((1R,2R)-1-(8-fluoro-2,3-dihydrobenzo[b][1,4]dioxin-6-yl)-1-hydroxy-3-(pyrrolidin-1-yl)propan-2-yl)-2-oxo-2-(4-(pyrrolidin-1-yl)phenyl)acetamide] | < 50
O=C(N[C@H](CN1CCCC1)[C@H](O)c1cc(F)c2c(c1)OCCO2)/C(CCc1ccc2cc(F)ccc2c1)=N/O [Compound 115, (E)-N-((1R,2R)-1-(8-fluoro-2,3-dihydrobenzo[b][1,4]dioxin-6-yl)-1-hydroxy-3-(pyrrolidin-1-yl)propan-2-yl)-4-(6-fluoronaphthalen-2-yl)-2-(hydroxyimino)butanamide] | < 50
CN(C(=O)C(=O)c1ccc(-c2ccc(F)cc2)cc1)[C@H](CN1CCCC1)[C@H](O)c1ccc(OC2CC2)c(F)c1 [Compound 382, N-((1R,2R)-1-(4-cyclopropoxy-3-fluorophenyl)-1-hydroxy-3-(pyrrolidin-1-yl)propan-2-yl)-2-(4′-fluoro-[1,1′-biphenyl]-4-yl)-N-methyl-2-oxoacetamide] | < 50
O=C(N[C@H](CN1CCCC1)[C@H](O)c1ccc(OC2CCOCC2)c(Cl)c1)C(F)(F)c1ccc2cc(Cl)ccc2c1 [Compound 146, N-((1R,2R)-1-(3-chloro-4-((tetrahydro-2H-pyran-4-yl)oxy)phenyl)-1-hydroxy-3-(pyrrolidin-1-yl)propan-2-yl)-2-(6-chloronaphthalen-2-yl)-2,2-difluoroacetamide] | < 50
Cc1cc(F)ccc1-c1ccc(C(=O)C(=O)N[C@H](CN2CCCC2)[C@H](O)c2cc(F)c3c(c2)OCCO3)cc1 [Example 315, 2-(4′-fluoro-2′-methyl-[1,1′-biphenyl]-4-yl)-N-((1R,2R)-1-(8-fluoro-2,3-dihydrobenzo[b][1,4]dioxin-6-yl)-1-hydroxy-3-(pyrrolidin-1-yl)propan-2-yl)-2-oxoacetamide] | < 50
Cc1nn(C)c2cc(-c3ccc(C(=O)C(=O)N[C@H](CN4CCCC4)[C@H](O)c4ccc(OC5CC5)c(Cl)c4)cc3)ccc12 [Example 340, N-((1R,2R)-1-(3-chloro-4-cyclopropoxyphenyl)-1-hydroxy-3-(pyrrolidin-1-yl)propan-2-yl)-2-(4-(1,3-dimethyl-1H-indazol-6-yl)phenyl)-2-oxoacetamide] | < 50
O=C(N[C@H](CN1CCCC1)[C@H](O)c1ccc(OC2CC2)c(Cl)c1)C(=O)c1ccc2cc(Cl)ccc2c1 [Compound 172, N-((1R,2R)-1-(3-chloro-4-cyclopropoxyphenyl)-1-hydroxy-3-(pyrrolidin-1-yl)propan-2-yl)-2-(6-chloronaphthalen-2-yl)-2-oxoacetamide] | < 50
O=C(N[C@H](CN1CCCC1)[C@H](O)c1ccc2c(c1)OCCO2)C(F)(F)c1ccc(-c2ccc(F)cc2)cc1 [Compound 160, N-((1R,2R)-1-(2,3-dihydrobenzo[b][1,4]dioxin-6-yl)-1-hydroxy-3-(pyrrolidin-1-yl)propan-2-yl)-2,2-difluoro-2-(4′-fluoro-[1,1′-biphenyl]-4-yl)acetamide] | < 50
